# Results from patent US20110159095A1, “TREATMENT OF ADRENAL INSUFFICIENCY” (priority 2008, published 2011).
# Test system: HPA axis
# Test: Plasma ACTH in dexamethasone-suppressed healthy subjects
# Format: in vivo, human
# Conditions: 1 mg oral dexamethasone repeated; confirms suppression of HPA axis
# Method: Plasma ACTH levels were taken at 2155 h on Day 1 and on 0600 h on Day 2 whilst serum cortisol levels were taken prior to ingestion of the drug and were repeated every 30 minutes for the first four hours, then at 0200 h, 0300 h, 0400 h, 0500 h, 0600 h, 0800 h, 1000 h, 1300 h, 1600 h, 2200 h.
# Assays: Serum cortisol was measured using the Bayer Advia Centaur Automated Immunoassay System. The inter-assay coefficient variation was 7% at 200 nmol/l (7.2 μg/dl), and 8% at 1,050 nmol/l (38 μg/dl). Plasma ACTH was measured using the DPC Immulite 2000 assay. Plasma 17OH-progesterone was measured using Liquid Chromatography Tandem Mass Spectrometry at Quest Diagnostics (Nichols Institute, San Juan Capistrano, Calif., USA) with an inter-assay coefficient of variation of 8.2%.
smiles,measurement,value
C[C@@H]1C[C@H]2[C@@H]3CCC4=CC(=O)C=C[C@]4(C)[C@@]3(F)[C@@H](O)C[C@]2(C)[C@@]1(O)C(=O)CO [dexamethasone],ACTH values below the assay lower limit,98%
